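Grown in 96-well plates, cells were treated for 48 hours with each compound at five concentrations. Insufficient inhibition: endpoint recorded as highest concentration tested. GI50 is the concentration that inhibits growth by half.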 The source made the active and inactive calls. Cut-off read from the data, not from the text of the source: active = GI50 up to about 1.1 µM and inactive = higher.
Experiments:
Test in all cases: inhibition of tumour cell growth, NCI panel, 48 h
[1] = tested on: DLD-1
[2] = tested on: DMS-273
[3] = tested on: NCI-H226
[4] = tested on: MCF7
[5] = tested on: A498
[6] = tested on: IGROV-1
[7] = tested on: Malme-3M
[8] = tested on: HCT-116
[9] = tested on: NCI/ADR-RES
[10] = tested on: DMS-114
[11] = tested on: KM-20L2
[12] = tested on: SNB-78
[13] = tested on: XF498
[14] = tested on: SR

Compound	GI50 [1]	GI50 [2]	GI50 [3]	GI50 [4]	GI50 [5]	GI50 [6]	GI50 [7]	GI50 [8]	GI50 [9]	GI50 [10]	GI50 [11]	GI50 [12]	GI50 [13]	GI50 [14]
C#CCNC(=O)CCC(N)C(=O)O (centres undefined)	> 100 µM (inactive)	> 100 µM (inactive)	> 100 µM (inactive)	> 100 µM (inactive)	> 100 µM (inactive)	> 100 µM (inactive)	> 100 µM (inactive)	> 100 µM (inactive)	> 100 µM (inactive)	> 100 µM (inactive)	> 100 µM (inactive)	> 100 µM (inactive)	> 100 µM (inactive)	
CC1[C@@]2(O[C@@H]3C=C4C5CCC6Cc7nc8c(nc7C[C@@]6(C)C5C[C@H](O)[C@@]4(C)[C@]13O)CC1CCc3c(cc4c5c3C(O)C[C@H]5[C@@H](C)C3(O4)OC(C)(C)CC3O)[C@]1(C)C8)O[C@@](C)(CO)C[C@@H]2O (some centres undefined)	1.79 µM (inactive)	0.0504 µM (active)	0.185 µM (active)	0.21 µM (active)	0.129 µM (active)	0.345 µM (active)	0.22 µM (active)	0.558 µM (active)		0.119 µM (active)	0.37 µM (active)	0.183 µM (active)	0.0162 µM (active)	
CC(=O)Nc1ccc(C(=O)N2N=C(C)/C(=C/c3ccc(O)cc3)C2=O)cc1	> 100 µM (inactive)	> 100 µM (inactive)	> 100 µM (inactive)				> 100 µM (inactive)	> 100 µM (inactive)		> 100 µM (inactive)		> 100 µM (inactive)	> 100 µM (inactive)	> 100 µM (inactive)
COC1=C(C)C(=O)C2=C(C1=O)[C@@H]1[C@@H]3Cc4c(OC(=O)CO)c(C)c(OC)c(O)c4[C@H](CNC(=O)C(C)=O)N3[C@@H](C#N)[C@H](C2)N1C	0.0115 µM (active)	0.0189 µM (active)	0.0871 µM (active)	0.0332 µM (active)	0.0959 µM (active)	0.0177 µM (active)	0.0562 µM (active)	0.0573 µM (active)	1.08 µM (active)	< 0.01 µM (active)	0.0466 µM (active)	< 0.013 µM (active)	< 0.01 µM (active)	
BrC(/C=N/Nc1nnc(-c2ccccc2)c(-c2ccccc2)n1)C(Br)c1ccccc1 (centres undefined)	23.8 µM (inactive)	30.5 µM (inactive)	20.4 µM (inactive)		40.2 µM (inactive)	41.7 µM (inactive)	28.5 µM (inactive)			23.7 µM (inactive)	39.8 µM (inactive)	17.7 µM (inactive)	25.3 µM (inactive)	
Oc1cc2cc(O)nc(O)c2c(O)n1	> 100 µM (inactive)	> 100 µM (inactive)	> 100 µM (inactive)		> 100 µM (inactive)	> 100 µM (inactive)	> 100 µM (inactive)	> 100 µM (inactive)		> 100 µM (inactive)	> 100 µM (inactive)	> 100 µM (inactive)	> 100 µM (inactive)	> 100 µM (inactive)
